Data reported in PMC11443518, “Undescribed Amaryllidaceae Alkaloids from Zephyranthes citrina and Their Cytotoxicity” (Journal of Natural Products, 2024).
Read-outs that look alike come from different tables or passages of the source.

Tests used:
[1] = system: A2780 (ovarian carcinoma); assay: WST-1 cell proliferation assay, cytotoxicity screening; format: cell-based; conditions: Homo sapiens, read-out: growth percent (GP) A2780
Description: (§1) Selected human tumor and nontumor cell lines Jurkat (acute T-cell leukemia), MOLT-4 (acute lymphoblastic leukemia), A549 (lung carcinoma), HT-29 (colorectal adenocarcinoma), PANC-1 (pancreas epithelioid carcinoma), A2780 (ovarian carcinoma), HeLa (cervix adenocarcinoma), MCF-7 (breast adenocarcinoma), SAOS-2 (osteosarcoma) and MRC-5 (nontumor lung fibroblasts) were purchased from European Collection of Authenticated Cell Cultures (ECACC, Salisbury, UK) and cultured according to the provider’s culture method guidelines. […] The cells in low passage number (nontumor primary cell line MRC-5 was used for a maximum of 10 passages and cancer cell lines were used for a maximum of 20 passages) and in an exponential growth phase were used for this study.
(§2) Each cell line was seeded at a previously established optimal density (1 × 10^3 to 50 × 10^3 cells per well) in a 96-well plate (TPP, Trasadingen, Switzerland) and cells were allowed to settle overnight. During screening tests for cytotoxicity, cells were treated with alkaloids at a final concentration of 10 μM for 48 h. Doxorubicin (Sigma-Aldrich, St. Louis, USA), at a concentration of 1 μM, was used as a positive control. At the end of the culture period, the WST-1 proliferation assay (Roche, Basel, Switzerland) was performed according to the manufacturer’s protocol. The absorbance was determined using a Tecan Spark microplate reader (Tecan, Männedorf, Switzerland). Each value is the mean of three independent experiments and represents the percentage of the proliferation of control, nontreated cells (100%). The growth percent (GP) value as the mean of the proliferation decrease was calculated for each cell line and derivative tested.

A549 (lung carcinoma) = assay: as above; format: cell-based; conditions: Homo sapiens, read-out: growth percent (GP) A549
Description: as §1, §2

[2] = system: HT-29 (colorectal adenocarcinoma); assay: as above; format: cell-based; conditions: Homo sapiens, read-out: growth percent (GP) HT-29
Description: as §1, §2

[3] = system: HeLa (cervix adenocarcinoma); assay: as above; format: cell-based; conditions: Homo sapiens, 48 h, read-out: growth percent (GP) HeLa
Description: as §1, §2

[4] = system: Jurkat (acute T-cell leukemia); assay: as above; format: cell-based; conditions: Homo sapiens, 48 h, read-out: growth percent (GP) Jurkat
Description: as §1, §2

[5] = system: MRC-5 (nontumor lung fibroblasts); assay: as above; format: cell-based; conditions: Homo sapiens, read-out: growth percent (GP) MRC-5; for activity at 10 µM: MRC5, 48 h
Description: as §1, §2

[6] = system: PANC-1 (pancreas epithelioid carcinoma); assay: as above; format: cell-based; conditions: Homo sapiens, read-out: growth percent (GP) PANC-1
Description: as §1, §2

SAOS-2 (osteosarcoma) = assay: as above; format: cell-based; conditions: Homo sapiens, read-out: growth percent (GP) SAOS-2
Description: as §1, §2

[7] = system: MCF-7 (breast adenocarcinoma); assay: as above; format: cell-based, human; conditions: Homo sapiens, read-out: growth percent (GP) MCF-7
Description: as §1, §2

[8] = system: MOLT-4 (acute lymphoblastic leukemia); assay: as above; format: cell-based, human; conditions: Homo sapiens, read-out: growth percent (GP) MOLT-4
Description: as §1, §2

[9] = system: nine human tumor and one nontumor cell lines; assay: Cytotoxicity screening across the whole panel of cell lines; format: cell-based; conditions: Homo sapiens, read-out: GP value across the tested cell lines
Description: Concerning the cytotoxicity of alkaloids isolated from Z. citrina, initially, Prakash and Vedanayaki investigated the MeOH extract of the bulbs for its in vitro cytotoxic activity using the MTT assay against three human cancer cell lines from different tissue origins: cervical cancer (HeLa), breast cancer (MCF-7), and oral squamous carcinoma (SCC-9). […] In this context, and to assess potential negative effects on human cell cultures, compounds 1, and 3–27 were screened in our study for cytotoxicity using a 10 μM single-dose regimen. The results were compared with those using the clinically approved antineoplastic agent doxorubicin at 1 μM. The effect on cell growth was investigated on nine human tumor and one nontumor cell lines, namely Jurkat (acute T-cell leukemia), MOLT-4 (acute lymphoblastic leukemia), A549 (lung carcinoma), HT-29 (colorectal adenocarcinoma), PANC-1 (pancreas epithelioid carcinoma), A2780 (ovarian carcinoma), HeLa (cervix adenocarcinoma), MCF-7 (breast adenocarcinoma), SAOS-2 (osteosarcoma) and MRC-5 (nontumor lung fibroblasts). […] No toxicity is valuable information, especially for compound 18, as it is a potent inhibitor of hAChE and hBChE.[27]
Selected human tumor and nontumor cell lines Jurkat (acute T-cell leukemia), MOLT-4 (acute lymphoblastic leukemia), A549 (lung carcinoma), HT-29 (colorectal adenocarcinoma), PANC-1 (pancreas epithelioid carcinoma), A2780 (ovarian carcinoma), HeLa (cervix adenocarcinoma), MCF-7 (breast adenocarcinoma), SAOS-2 (osteosarcoma) and MRC-5 (nontumor lung fibroblasts) were purchased from European Collection of Authenticated Cell Cultures (ECACC, Salisbury, UK) and cultured according to the provider’s culture method guidelines. All cell lines were maintained at 37 °C in a humidified 5% carbon dioxide and 95% air incubator. The cells in low passage number (nontumor primary cell line MRC-5 was used for a maximum of 10 passages and cancer cell lines were used for a maximum of 20 passages) and in an exponential growth phase were used for this study.
as §2

[10] = A2780, c = 10 μM, 48 h, % of proliferation of nontreated control
[11] = A549, c = 10 μM, 48 h, % of proliferation of nontreated control
[12] = HT-29, c = 10 μM, 48 h, % of proliferation of nontreated control
[13] = c = 10 μM, % of proliferation of nontreated control
[14] = PANC-1, c = 10 μM, 48 h, % of proliferation of nontreated control
[15] = SAOS-2, c = 10 μM, 48 h, % of proliferation of nontreated control
[16] = MCF7, c = 10 μM, 48 h, % of proliferation of nontreated control
[17] = MOLT-4, c = 10 μM, 48 h, % of proliferation of nontreated control
[18] = 10 μM single dose, 48-h interval, all tested cell lines

Row | Compound | activity at 10 µM ([1]; A2780, 48 h) | activity at 10 µM (A549 (lung carcinoma); A549, 48 h) | activity at 10 µM ([2]; HT-29, 48 h) | activity at 10 µM [3] | activity at 10 µM [4] | activity at 10 µM [5] | activity at 10 µM ([6]; PANC-1, 48 h) | activity at 10 µM (SAOS-2 (osteosarcoma); SAOS-2, 48 h) | activity at 10 µM ([7]; MCF7, 48 h) | activity at 10 µM ([8]; MOLT-4, 48 h) | activity at 10 µM ([9]; 48 h) | further results
1 | COc1cc2c(cc1OC)[C@@]13CC[C@H](OC)C[C@@H]1N(CC3)C2O (stereo partly shown) [Compound 9, zephyranine E] | 111% | 95% | 95% | 106% | 96% | 100% | 98% | 77% | 108% | 79% | > 50% | –
2 | COc1cc2c(c(O)c1OC)[C@@]13CC[C@H](OC)C[C@@H]1N(CC3)C2O (stereo partly shown) [Compound 10, zephyranine F] | 113% | 81% | 88% | 82% | 89% | 97% | 77% | 73% | 99% | 78% | > 50% | –
3 | COc1cc2c(cc1OC)[C@@]13CC[C@@H](O)C[C@@H]1N(CC3)C2 [Compound 11] | 107% | 88% | 97% | 98% | 99% | 104% | 100% | 97% | 104% | 95% | > 50% | –
4 | CO[C@@H]1C=C[C@@]23c4cc5c(cc4CN(C[C@@H]2O)[C@H]3C1)OCO5 [Compound 12, haemanthamine] | 38% | 33% | 5% | 16% | 18% | 32% | 37% | 34% | 17% | 6% | – | –
5 | CO[C@@H]1C=C[C@@]23c4cc5c(cc4[C@H](O)N(C[C@@H]2O)[C@H]3C1)OCO5 [Compound 13, haemanthidine] | 52% | 38% | 7% | 25% | 23% | – | 38% | 35% | 24% | 11% | – | –
6 | COc1ccc2c3c1O[C@H]1C[C@@H](O)CC[C@@]31CCN(C)C2 [Compound 19] | 92% | 96% | 83% | 82% | 102% | – | 102% | 97% | 101% | 105% | > 50% | –
7 | CO[C@@H]1C=C[C@@]23c4cc5c(cc4CO[C@]2(O)CN(C)[C@H]3C1)OCO5 [Compound 20] | 101% | 83% | 57% | 84% | 93% | – | 76% | 92% | 94% | 95% | > 50% | –
8 | COc1cc2c(cc1OC)[C@@H]1[C@H](O)[C@@H](OC)C=C3CCN(C2)[C@H]31 [Compound 23] | – | – | – | – | – | – | – | – | – | – | – | activity at 10 µM [1, 10]: 113%; activity at 10 µM (A549 (lung carcinoma); [11]): 93%; activity at 10 µM [2, 12]: 64%; activity at 10 µM [3, 13]: 93%; activity at 10 µM [4, 13]: 98%; activity at 10 µM [6, 14]: 97%; activity at 10 µM (SAOS-2 (osteosarcoma); [15]): 97%; activity at 10 µM [7, 16]: 114%; activity at 10 µM [8, 17]: 103%; activity at 10 µM [9, 18]: > 50%
9 | CC(=O)O[C@@H]1CC=C2CCN3Cc4cc5c(cc4[C@H]1[C@@H]23)OCO5 [Compound 26] | – | – | – | – | – | – | – | – | – | – | – | activity at 10 µM [1, 10]: 141%; activity at 10 µM (A549 (lung carcinoma); [11]): 113%; activity at 10 µM [2, 12]: 107%; activity at 10 µM [3, 13]: 98%; activity at 10 µM [4, 13]: 132%; activity at 10 µM [6, 14]: 119%; activity at 10 µM (SAOS-2 (osteosarcoma); [15]): 95%; activity at 10 µM [7, 16]: 131%; activity at 10 µM [8, 17]: 119%; activity at 10 µM [9, 18]: > 50%
10 | O[C@H]1[C@H]2c3cc4c(cc3CN3CCC(=C[C@@H]1O)[C@H]23)OCO4 [Compound 27, lycorine] | 39% | 27% | 5% | 15% | 5% | 25% | 36% | 27% | 27% | 9% | – | –
11 | COc1cccc2c1C(=O)c1c(O)c3c(c(O)c1C2=O)C[C@@](O)(C(=O)CO)C[C@@H]3O[C@H]1C[C@H](N)[C@H](O)[C@H](C)O1 [doxorubicin, reference compound] | – | – | – | – | – | – | – | – | – | – | – | activity at 1 µM ([1]; A2780, positive control, c = 1 μM, 48 h): 5%; activity at 1 µM (A549 (lung carcinoma); A549, positive control, c = 1 μM, 48 h): 66%; activity at 1 µM ([2]; HT-29, positive control, c = 1 μM, 48 h): 77%; activity at 1 µM ([3]; positive control, c = 1 μM): 7%; activity at 1 µM ([4]; positive control, c = 1 μM): 0%; activity at 1 µM ([5]; MRC5, positive control, c = 1 μM, 48 h): 40%; activity at 1 µM ([6]; PANC-1, positive control, c = 1 μM, 48 h): 59%; activity at 1 µM (SAOS-2 (osteosarcoma); SAOS-2, positive control, c = 1 μM, 48 h): 73%; activity at 1 µM ([7]; MCF7, positive control, c = 1 μM, 48 h): 41%; activity at 1 µM ([8]; MOLT-4, positive control, c = 1 μM, 48 h): 0%
